Test systems include EKVX NSCLC; SN12C renal; SW-620 colon; UACC-257 melanoma; HCT-15 colon; ACHN renal; SK-MEL-28 melanoma; UO-31 renal; MOLT-4 leukemia; OVCAR-8 ovarian; 786-0 renal; M14 melanoma; HCT-116 colon; T-47D breast; OVCAR-3 ovarian; U251 CNS; NCI/ADR-RES ovarian.
Experiment in all cases: NCI-60 cell line screen, 48 h

TGI data for 9 molecules are collected here from PubChem BioAssay (NCI).

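The compound was tested at five concentrations on cells cultured in 96-well plates, with a 48-hour exposure period. TGI denotes the concentration required for complete inhibition of growth.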

Regarding `Cc1nn(C(=O)Cc2ccccc2)c2c1C(c1ccc(O)cc1O)SC(N)=N2` (stereo not given), the TGI with EKVX NSCLC, with SN12C renal, in the assay on SW-620 colon, in the assay on UACC-257 melanoma, in the assay on HCT-15 colon and with ACHN renal was greater than 100 µM throughout. Further, the TGI with SK-MEL-28 melanoma, in the assay on UO-31 renal, in the assay on MOLT-4 leukemia, in the assay with OVCAR-8 ovarian, with 786-0 renal and in the assay on M14 melanoma was greater than 100 µM throughout. Further, the TGI with HCT-116 colon and in the assay on T-47D breast was greater than 100 µM in each case.
As for `CCOC(=O)/C=C/n1c2ccccc2c(=O)c2ccccc21`, the TGI in the assay on EKVX NSCLC, with SN12C renal, with SW-620 colon, with UACC-257 melanoma, in the assay on OVCAR-3 ovarian and with HCT-15 colon was greater than 100 µM in each case. Moreover, the TGI in the assay with ACHN renal, with U251 CNS, in the assay on SK-MEL-28 melanoma, in the assay with UO-31 renal, in the assay on MOLT-4 leukemia and in the assay with OVCAR-8 ovarian was greater than 100 µM in each case. Also, the TGI with 786-0 renal, with M14 melanoma and in the assay with HCT-116 colon was greater than 100 µM in each case.
As to `CC[C@@H]1CC[C@@H]2[C@H](CC[C@]3(C)[C@@H](OS(=O)(=O)c4ccc(C)cc4)CC[C@@H]23)[C@H]1COS(=O)(=O)c1ccc(C)cc1`, the TGI in the assay with EKVX NSCLC, in the assay on SN12C renal, with SW-620 colon, with UACC-257 melanoma, in the assay on HCT-15 colon and with ACHN renal was greater than 100 µM throughout. Further, the TGI with U251 CNS, in the assay on SK-MEL-28 melanoma, with UO-31 renal, in the assay with MOLT-4 leukemia, in the assay on NCI/ADR-RES ovarian and with OVCAR-8 ovarian was greater than 100 µM in each case. Moreover, the TGI in the assay with 786-0 renal, in the assay with M14 melanoma and in the assay on HCT-116 colon was greater than 100 µM throughout.
With `COc1ccc(CNC(=O)NCn2cc(-c3ccccc3)nn2)cc1`, the TGI in the assay on EKVX NSCLC, in the assay on SN12C renal, in the assay on SW-620 colon, in the assay on UACC-257 melanoma, in the assay on HCT-15 colon and with ACHN renal was greater than 100 µM throughout. In addition, the TGI in the assay with U251 CNS, in the assay on SK-MEL-28 melanoma, in the assay with MOLT-4 leukemia, in the assay with NCI/ADR-RES ovarian, in the assay with OVCAR-8 ovarian and in the assay with 786-0 renal was greater than 100 µM in each case. For the same molecule, the TGI in the assay on M14 melanoma and with HCT-116 colon was greater than 100 µM in each case.
For `O=S(Nc1ccccc1)c1cccc(Cl)c1` (stereo not given), the TGI in the assay on EKVX NSCLC, in the assay with SN12C renal, in the assay on SW-620 colon, in the assay with UACC-257 melanoma, in the assay on OVCAR-3 ovarian and in the assay on HCT-15 colon was greater than 100 µM in each case. The TGI in the assay on ACHN renal, in the assay with U251 CNS, with SK-MEL-28 melanoma, in the assay on UO-31 renal, in the assay with MOLT-4 leukemia and in the assay on NCI/ADR-RES ovarian was greater than 100 µM in each case. In addition, the TGI with OVCAR-8 ovarian, in the assay on 786-0 renal, in the assay with M14 melanoma and in the assay on HCT-116 colon was greater than 100 µM in each case.
As for `CCSc1n/c(=C\c2ccco2)c2nncn12`, the TGI in the assay on EKVX NSCLC, in the assay on SN12C renal, in the assay on SW-620 colon, in the assay on OVCAR-3 ovarian, in the assay with HCT-15 colon and in the assay with ACHN renal was greater than 100 µM in each case. Also, the TGI in the assay on U251 CNS, in the assay on SK-MEL-28 melanoma, in the assay with UO-31 renal, in the assay with MOLT-4 leukemia, in the assay with NCI/ADR-RES ovarian and in the assay with OVCAR-8 ovarian was greater than 100 µM in each case. In addition, the TGI in the assay on 786-0 renal, in the assay on M14 melanoma and with HCT-116 colon was greater than 100 µM in each case.
For `CN1CCN(c2ncc3c(n2)sc2c(=O)n(-c4ccccc4)cnc23)CC1`, the TGI in the assay on SN12C renal, with SW-620 colon, in the assay on UACC-257 melanoma, in the assay with OVCAR-3 ovarian, in the assay with HCT-15 colon and in the assay on ACHN renal was greater than 100 µM throughout. In addition, the TGI in the assay with U251 CNS, in the assay with SK-MEL-28 melanoma, in the assay on UO-31 renal, with MOLT-4 leukemia, in the assay with NCI/ADR-RES ovarian and with OVCAR-8 ovarian was greater than 100 µM throughout. Moreover, the TGI in the assay with 786-0 renal, with M14 melanoma, in the assay with HCT-116 colon and in the assay on T-47D breast was greater than 100 µM in each case.
In the case of `CN(C)CCCNc1ccc([N+](=O)[O-])c2nc3ccccc3c(N)c12`, the TGI was 2.35 µM in the assay on EKVX NSCLC; 7.37 µM with SN12C renal; 1.63 µM in the assay on SW-620 colon; greater than 10 µM in the assay with UACC-257 melanoma; 5.05 µM with OVCAR-3 ovarian; 1.7 µM in the assay with HCT-15 colon. Further, the TGI with ACHN renal is 1.61 µM; in the assay on U251 CNS, 2.12 µM; with SK-MEL-28 melanoma, greater than 10 µM; with UO-31 renal, 2.97 µM; in the assay with MOLT-4 leukemia it was 3.42 µM; in the assay on NCI/ADR-RES ovarian, 1.84 µM. Moreover, the TGI in the assay on 786-0 renal worked out at 1.8 µM; in the assay on M14 melanoma, 1.95 µM; with HCT-116 colon, 1.33 µM.
Take `CC(C)CC(NC(=O)OC(C)(C)C)C(=O)Nc1ccc(Nc2nc(F)nc(-c3c4ccccc4c4n3CCS4)n2)cc1` (stereo not given): the TGI turned out to be 37.8 µM in the assay on EKVX NSCLC; 43.5 µM in the assay with SN12C renal; 30.7 µM in the assay with SW-620 colon; 48.3 µM in the assay on UACC-257 melanoma; 36.7 µM in the assay with OVCAR-3 ovarian; 30.3 µM in the assay with HCT-15 colon. Further, the TGI in the assay with ACHN renal stood at 39.2 µM; in the assay with U251 CNS, 33.3 µM; with SK-MEL-28 melanoma, 42.7 µM; in the assay on UO-31 renal it was 34.8 µM; with MOLT-4 leukemia, 39 µM; in the assay with OVCAR-8 ovarian, 38.3 µM. Also, the TGI in the assay with 786-0 renal stood at 34.8 µM; in the assay on M14 melanoma it was 35.1 µM; in the assay with HCT-116 colon it was 46 µM.
